Results taken from patent publication US5550110A, “Endothelin Antagonists II” (Warner-Lambert Company, priority 1994, dated 1996).
pIC50: −log10 of the molar value. Peptide text beside a SMILES is read from it.

Tests used:
ET-1 pressor activity = test: Conscious rat duration of action study; type: in vivo; details: 10 mg/kg IV; for inhibition of ET-1 pressor activity: ganglionically blocked conscious rats, n=4
Text: Conscious Rat Duration of Action Study
Nonfasted rats (350-500 g) were used and anesthetized with Metofane (methoxyflurane) by inhalation. The rats were jugular cannulated (PE50) for IV administration of mecamylamine-HC1 (MEC), ET-1 and Ac-D-Bhg-Leu-Asp-Ile-N-MeIle-Trp (Example 19) Seq ID No: 20, and carotid cannulated (PE50) for arterial blood pressure measurements. Rats were attached to a swivel for freedom of movement, and food and water were available ad lib. Prior to the experiment, the animals were allowed to recover from anesthesia for 60 minutes. […] Ac-D-Bhg-Leu-Asp-Ile-N-MeIle-TrP (Example 19) Seq ID No: 20 was administered at a dose of 10 mg/kg IV.

[1] = tested on: endothelin receptor, cultured rabbit renal artery vascular smooth muscle cells; test: Inhibition of ET-1 stimulated arachidonic acid release (AAR-A); type: cell-based; details: ET-1 0.3 nM
Protocol: In Vitro Inhibition of ET-1 Stimulated Arachidonic Acid Release in Cultured Rabbit Vascular Smooth Muscle Cells (AAR-A) or CHO Cells Expressing Rat Recombinant ETB Receptor (AAR-B) by Compounds of Formula I
Antagonist activity is measured by the ability of added compounds to reduce endothelin-stimulated arachidonic acid release in cultured vascular smooth muscle cells as arachidonic acid release (AAR). [^3 H] Arachidonic Acid Loading Media (LM) is DME/F12+0.5% fetal calf serum (FCS)×0.25 mCi/mL [^3 H] arachidonic acid (Amersham). Confluent monolayers of cultured rabbit renal artery vascular smooth muscle cells (AAR-A) or CHO cells expressing rat recombinant ETB receptor (AAR-B) were incubated in 0.5 mL of the LM over 18 hours, at 37° C., in 5% CO2. The LM was aspirated and the cells were washed once with the assay buffer (Hank's balanced salt solution [BSS]+10 mM HEPES+fatty acid-free BSA (1 mg/mL)), and incubated for 5 minutes with 1 mL of the prewarmed assay buffer. This solution was aspirated, followed by an additional 1 mL of prewarmed assay buffer, and further incubated for another 5 minutes. A final 5-minute incubation was carried out in a similar manner. The same procedure was repeated with the inclusion of 10 μL of the test compound (1 nM to 1 μM) and 10 μL ET-1 (0.3 nM) and the incubation was extended for 30 minutes. This solution was then collected, […] of scintillation cocktail was added, and the amount of [^3 H] arachidonic acid was determined in a liquid scintillation counter.

`CC[C@H](C)[C@H](NC(=O)[C@H](CC(=O)O)NC(=O)[C@H](CC(C)C)NC(=O)[C@H](NC(C)=O)C1c2ccccc2CCc2ccccc21)C(=O)N(C)[C@H](C(=O)N[C@@H](Cc1c[nH]c2ccccc12)C(=O)O)[C@@H](C)CC` [Example 19, Ac-D-Bhg-Leu-Asp-Ile-N-MeIle-Trp] (HELM PEPTIDE1{[ac].[O=C([C@H](N[*:1])C1c2ccccc2CCc2ccccc21)[*:2]].L.D.I.[meI].W}$$$$V2.0) was tested, and the “duration of activity in vivo” value (ET-1 pressor activity) was “prolonged activity”, the “inhibition of ET-1 pressor activity” value (ET-1 pressor activity; 5 minutes postdose) was 81% and the “inhibition of ET-1 pressor activity” value (ET-1 pressor activity; 30 minutes postdose) was 58%. For the same compound, the pIC50 [1] was 8.37.
